# From patent US11643421B2, “Process for the preparation of tricyclic PI3K inhibitor compounds and methods for using the same for the treatment of cancer” (priority 2015, dated 2023)
# Key:
# [1] = MALDI imaging of brain distribution, GS2 orthotopic model; assay type: in vivo, female nude mice; conditions: 15 mg/kg PO, 1 hour post dose
# Description: Mice were euthanized at 1 and 6 hours post-dose via exsanguination by perfusion under anesthesia. Brains were excised, flash frozen in liquid N2 and stored in a −80° C. freezer until analyzed. Fresh frozen tissue sections were obtained on a cryomicrotome (Leica CM3050S, Buffalo Grove, Ill.) at 12 μm thickness and thaw-mounted onto indium tin oxide coated glass slides (Bruker Daltonics, Billerica, Mass.). Tissue sections were an analyzed by imaging MALDI MS, providing signal intensities (and not absolute quantitation), followed by cresyl violet staining for histological interrogation.
# For MALDI MAS analysis, a 40 mg/mL solution of 2,5-dihydroxybenzoic acid (Sigma-Aldrich, St. Louis, Mo.) was prepared in methanol:water (70:30 v/v). […] Matrix solution was homogenously spray-coated onto the tissue using a HTX TM-Sprayer (HTX technologies. Chapel Hill, N.C.). Matrix-coated tissue sections were transferred to the MALDI mass spectrometer (SolariX 7T FT-ICR, Bruker Daltonics, Bremen, Germany) for imaging analysis. […] Laser intensity and number of shots were optimized for sensitivity of the parent drug (1200 shots) with ion detection collected over the mass range of m/z 150-3000.
# Following completion of the imaging experiments, matrix coaling was removed by rinsing the glass slide in 100% methanol for 30 seconds or until the entire matrix was visibly removed. […]
# PI4Ka = PI4Ka (Homo sapiens, UniProt P42356); test: biochemical; conditions: read-out: % inhib
# Sequence of PI4Ka (P42356 whole entry): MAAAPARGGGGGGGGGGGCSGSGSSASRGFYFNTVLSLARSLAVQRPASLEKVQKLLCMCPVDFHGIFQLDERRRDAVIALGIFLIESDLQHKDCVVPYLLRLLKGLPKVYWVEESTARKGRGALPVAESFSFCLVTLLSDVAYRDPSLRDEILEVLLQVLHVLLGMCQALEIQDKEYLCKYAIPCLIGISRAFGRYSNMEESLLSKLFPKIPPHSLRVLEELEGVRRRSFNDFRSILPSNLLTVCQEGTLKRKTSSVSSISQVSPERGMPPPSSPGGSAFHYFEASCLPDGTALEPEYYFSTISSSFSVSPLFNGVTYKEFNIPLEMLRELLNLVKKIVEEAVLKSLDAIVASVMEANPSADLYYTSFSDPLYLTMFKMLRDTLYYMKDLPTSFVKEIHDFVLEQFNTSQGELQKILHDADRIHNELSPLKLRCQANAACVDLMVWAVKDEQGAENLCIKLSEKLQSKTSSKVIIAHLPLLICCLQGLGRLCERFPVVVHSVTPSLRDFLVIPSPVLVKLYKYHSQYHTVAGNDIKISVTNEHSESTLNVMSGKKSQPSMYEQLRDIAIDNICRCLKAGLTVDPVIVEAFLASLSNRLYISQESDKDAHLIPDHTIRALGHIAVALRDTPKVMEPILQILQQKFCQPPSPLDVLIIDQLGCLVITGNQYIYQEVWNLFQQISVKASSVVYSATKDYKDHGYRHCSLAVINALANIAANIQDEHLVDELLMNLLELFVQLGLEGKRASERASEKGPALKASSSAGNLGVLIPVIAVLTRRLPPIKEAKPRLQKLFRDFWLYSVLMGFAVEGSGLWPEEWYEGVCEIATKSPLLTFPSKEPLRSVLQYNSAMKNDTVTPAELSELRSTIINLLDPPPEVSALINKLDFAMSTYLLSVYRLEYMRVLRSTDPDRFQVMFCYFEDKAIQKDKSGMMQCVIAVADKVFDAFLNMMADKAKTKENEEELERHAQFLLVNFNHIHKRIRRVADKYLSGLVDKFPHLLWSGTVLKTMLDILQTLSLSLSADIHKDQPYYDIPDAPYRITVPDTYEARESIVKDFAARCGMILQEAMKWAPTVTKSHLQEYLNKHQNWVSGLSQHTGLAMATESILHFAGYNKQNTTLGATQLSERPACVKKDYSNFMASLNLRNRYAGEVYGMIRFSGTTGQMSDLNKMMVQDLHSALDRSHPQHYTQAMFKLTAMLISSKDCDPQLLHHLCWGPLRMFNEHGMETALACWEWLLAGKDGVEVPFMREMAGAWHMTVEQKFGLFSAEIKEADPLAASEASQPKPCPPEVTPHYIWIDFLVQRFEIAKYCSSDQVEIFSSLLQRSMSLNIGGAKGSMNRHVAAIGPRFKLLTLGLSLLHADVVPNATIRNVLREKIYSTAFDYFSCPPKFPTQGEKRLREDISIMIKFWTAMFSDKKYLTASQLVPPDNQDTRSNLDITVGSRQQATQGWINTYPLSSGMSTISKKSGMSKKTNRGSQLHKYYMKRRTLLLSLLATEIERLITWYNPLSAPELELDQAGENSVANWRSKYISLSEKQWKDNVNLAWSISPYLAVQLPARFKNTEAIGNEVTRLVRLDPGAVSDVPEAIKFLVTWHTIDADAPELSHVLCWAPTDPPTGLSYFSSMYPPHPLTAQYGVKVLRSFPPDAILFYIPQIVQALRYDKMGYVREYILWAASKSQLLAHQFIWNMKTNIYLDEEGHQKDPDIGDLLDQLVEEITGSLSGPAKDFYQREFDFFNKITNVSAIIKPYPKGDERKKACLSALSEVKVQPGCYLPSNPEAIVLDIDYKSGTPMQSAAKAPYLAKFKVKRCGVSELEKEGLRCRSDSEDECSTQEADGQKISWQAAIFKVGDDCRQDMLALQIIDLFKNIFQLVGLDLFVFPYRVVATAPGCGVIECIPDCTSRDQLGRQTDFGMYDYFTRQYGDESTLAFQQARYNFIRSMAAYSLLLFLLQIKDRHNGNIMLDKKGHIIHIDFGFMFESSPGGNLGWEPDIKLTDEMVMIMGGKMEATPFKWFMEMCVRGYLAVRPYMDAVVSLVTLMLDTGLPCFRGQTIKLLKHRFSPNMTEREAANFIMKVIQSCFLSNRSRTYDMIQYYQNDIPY
# p4EBP1 = test: PI3K pathway modulation in GS2 tumors, western blot; assay type: in vivo, mice; conditions: 15 mg/kg PO daily 4 weeks
# pAKT = test: pAKT/tAKT in normal brain tissue; assay type: in vivo, female CD-1 mice
# Description: The effect of compound IIIat on pAKT in normal brain tissue, expressed as the ratio of phosphorylated AKT (pAKT) to total AKT (tAKT) was evaluated. […] In the evaluation, female CD-1 mice were administered a single PO dose of the indicated compound. Brains and plasma were collected at the indicated time post-dose, from 3 animals at each time point. Individual brains were split in half for PD analysis and compound concentration measurement. The samples were stored at −70° C. and analyzed for total concentration. For PD analysis, cell extraction buffer (Invitrogen, Camarillo, Calif.) containing 10 mM Tris pH 7.4, 100 mM NaCl, 1 mM EDTA, 1 mM EGTA, 1 mM NaF, 20 mM Na4P2O7, 2 mM Na3VO4, 1% Triton X-100, 10% glycerol, 0.1% SDS, and 0.5% deoxycholate was supplemented with phosphatase, protease inhibitors (Sigma, St. Louis, Mo.) and 1 mM PMSF and added to frozen brain biopsies. […] Protein concentration was determined using BCA protein assay (Pierce, Rockford, Ill.). […] Licor Odyssey Infrared detection system (Licor, Lincoln, Nebr.) was used to assess and quantify protein expression. PI3K pathway markers were evaluated by immunoblotting using antibodies against pAkt^ser473 and total Akt (Invitrogen, Camarillo, Calif. and Cell Signaling, Danvers, Mass.). Inhibition of pAkt (%) was calculated by comparing pAkt signal with that measured in untreated mice.
# TBK1 = TBK1 (Homo sapiens, UniProt Q9UHD2); test: biochemical; conditions: read-out: % inhib
# Sequence of TBK1 (Q9UHD2 whole entry, species assumed): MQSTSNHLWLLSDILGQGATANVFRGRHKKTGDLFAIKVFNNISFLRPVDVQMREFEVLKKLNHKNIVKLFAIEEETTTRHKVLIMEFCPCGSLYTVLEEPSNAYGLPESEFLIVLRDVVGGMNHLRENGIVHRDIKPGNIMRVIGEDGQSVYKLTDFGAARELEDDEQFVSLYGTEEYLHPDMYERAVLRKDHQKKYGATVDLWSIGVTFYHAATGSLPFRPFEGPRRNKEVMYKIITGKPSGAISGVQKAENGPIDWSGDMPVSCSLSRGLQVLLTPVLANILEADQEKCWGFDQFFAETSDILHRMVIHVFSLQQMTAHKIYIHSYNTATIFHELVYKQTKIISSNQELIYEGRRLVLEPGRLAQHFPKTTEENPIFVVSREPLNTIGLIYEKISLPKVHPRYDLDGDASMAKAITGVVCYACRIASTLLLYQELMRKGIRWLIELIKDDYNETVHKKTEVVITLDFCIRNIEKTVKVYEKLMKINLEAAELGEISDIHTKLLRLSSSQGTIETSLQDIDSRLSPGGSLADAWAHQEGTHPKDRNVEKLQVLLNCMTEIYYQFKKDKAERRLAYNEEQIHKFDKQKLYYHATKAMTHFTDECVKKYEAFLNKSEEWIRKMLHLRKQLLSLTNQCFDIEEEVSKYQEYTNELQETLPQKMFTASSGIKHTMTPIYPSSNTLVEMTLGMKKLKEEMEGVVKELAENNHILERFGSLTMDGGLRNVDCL
# high-grade gliomas = test: Phase I study, FDG-PET tumor response; assay type: in vivo, human; conditions: 27 patients who underwent FDG-PET imaging
# Description: Tumor response was determined by either an assessment of FDG-PET or by Response Assessment in Neuro-Oncology (RANO).
# The outcome measure for this objective was based on the maximum standard uptake value (SUVmax) of up to five lesions. The tumor regions of interest (ROIs) were identified for each patient on pretreatment PET imaging and corresponded to a subset of the target lesions used for analysis of the patient's pretreatment tumor assessment scans. […] Specifically, the SUVmax of each ROI on the on-treatment scans was compared with its SUVmax on the corresponding pretreatment scan and the percent change was determined. In the event of more than one ROI, the overall percent change in SUVmax was the arithmetic mean of the percent changes in SUVmax for each of the ROIs (mSUVmax). PET response is defined as follows. Progressive disease (PET-PD): percent increase of >20% in mSUVmax or the development of a new lesion with an SUVmax above background and not explained by another cause (e.g., infection). Stable disease (PET-SD): percent increase of ≤20% in mSUVmax or a percent decrease of ≤20% in mSUVmax. Partial response (PET-PR): percent decrease of >20% in mSUVmax. […]
# Reduction in ^18F-FDG uptake measured by PET is indicative of reduced glucose metabolism activity, a likely PD response of PI3K pathway inhibition.
# Frk = Frk (Homo sapiens, UniProt P42685); test: biochemical; conditions: read-out: % inhib
# Sequence of Frk (P42685 whole entry): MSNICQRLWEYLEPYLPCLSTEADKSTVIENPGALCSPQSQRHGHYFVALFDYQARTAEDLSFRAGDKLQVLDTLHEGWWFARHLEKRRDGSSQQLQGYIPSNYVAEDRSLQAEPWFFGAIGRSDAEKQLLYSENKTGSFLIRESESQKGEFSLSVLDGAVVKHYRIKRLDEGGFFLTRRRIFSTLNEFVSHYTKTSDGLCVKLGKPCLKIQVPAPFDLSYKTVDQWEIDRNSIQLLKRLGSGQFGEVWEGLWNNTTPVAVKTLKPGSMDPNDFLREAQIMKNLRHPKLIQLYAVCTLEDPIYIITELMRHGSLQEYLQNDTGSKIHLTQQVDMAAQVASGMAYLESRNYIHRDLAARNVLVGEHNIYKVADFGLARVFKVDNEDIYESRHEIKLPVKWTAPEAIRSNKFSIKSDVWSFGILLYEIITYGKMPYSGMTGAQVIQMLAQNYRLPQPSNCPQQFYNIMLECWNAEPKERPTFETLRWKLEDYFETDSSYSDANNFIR
# AKT1 = AKT1 (Homo sapiens, UniProt P31749); test: biochemical; conditions: read-out: % inhib
# Sequence of AKT1 (P31749 whole entry, species assumed): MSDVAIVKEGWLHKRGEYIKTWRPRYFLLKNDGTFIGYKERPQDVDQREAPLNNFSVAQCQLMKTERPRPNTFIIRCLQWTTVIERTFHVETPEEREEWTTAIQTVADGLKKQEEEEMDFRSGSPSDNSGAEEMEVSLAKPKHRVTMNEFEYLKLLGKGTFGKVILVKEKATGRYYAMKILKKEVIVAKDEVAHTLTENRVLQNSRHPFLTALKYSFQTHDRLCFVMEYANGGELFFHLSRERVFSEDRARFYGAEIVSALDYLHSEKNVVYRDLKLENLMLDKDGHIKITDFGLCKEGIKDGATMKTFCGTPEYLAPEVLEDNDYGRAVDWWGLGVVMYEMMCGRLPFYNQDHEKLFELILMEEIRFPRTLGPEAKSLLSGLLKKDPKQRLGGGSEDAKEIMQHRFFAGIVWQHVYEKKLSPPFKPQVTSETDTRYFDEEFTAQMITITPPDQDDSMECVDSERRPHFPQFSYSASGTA
# [2] = In vivo pharmacokinetics IV and PO; design: species or system Male Sprague-Dawley rats; conditions: Rat
# Description: (§1) The hepatocyte stability of compound IIIat was evaluated across preclinical species. Certain in vivo pharmacokinetic parameters were also evaluated. […] Male Sprague-Dawley rats, female CD-1 mice, male cynomolgus monkeys and beagle dogs were dosed intravenously with 1 mg/kg of compound IIIat prepared in 60% PEG400/10% Ethanol. Compound IIIat was administered orally (PO) at the indicated dose in 0.5% methylcellulose with 0.2% Tween 80 (MCT).
# mouse Bcrp1 = biological target: T1, mouse Bcrp1 (Mus musculus, UniProt Q7TMS5); test: Transport assay in Bcrp1-MDCKII cell monolayers; assay type: in vitro ADME; conditions: 2-hour incubation
# T1 construct: host or cells: Bcrp1-MDCKII (canine kidney)
# T1 sequence (Q7TMS5 whole entry): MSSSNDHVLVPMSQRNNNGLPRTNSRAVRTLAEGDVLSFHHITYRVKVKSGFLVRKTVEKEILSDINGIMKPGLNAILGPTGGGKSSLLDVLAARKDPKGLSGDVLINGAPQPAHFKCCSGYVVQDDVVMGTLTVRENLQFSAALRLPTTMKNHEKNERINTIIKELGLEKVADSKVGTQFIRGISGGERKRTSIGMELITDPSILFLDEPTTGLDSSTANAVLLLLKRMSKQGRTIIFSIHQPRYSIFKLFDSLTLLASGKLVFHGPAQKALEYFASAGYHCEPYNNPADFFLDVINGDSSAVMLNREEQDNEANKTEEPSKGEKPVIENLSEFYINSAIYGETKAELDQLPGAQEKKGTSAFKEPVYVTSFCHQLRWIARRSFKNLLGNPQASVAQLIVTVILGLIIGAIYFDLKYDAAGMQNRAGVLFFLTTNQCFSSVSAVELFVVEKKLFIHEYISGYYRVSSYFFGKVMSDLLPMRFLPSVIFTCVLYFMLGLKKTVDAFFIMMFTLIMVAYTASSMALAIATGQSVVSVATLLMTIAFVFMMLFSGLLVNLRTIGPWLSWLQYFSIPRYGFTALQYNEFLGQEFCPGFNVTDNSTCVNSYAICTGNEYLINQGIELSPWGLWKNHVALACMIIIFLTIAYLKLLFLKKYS
# Description: MDR1-MDCKI cells were licensed from the NCI (National Cancer Institute, Bethesda, Md.) and Bcrp1-MDCKII, BCRP-MDCKII and Mdr1a-LLC-PK1 cells were obtained from the Netherlands Cancer Institute (Amsterdam. The Netherlands). […] The compound was dissolved in transport buffer consisting of Hank's balanced salt solution (HBSS) with 10 mM HEPES (Invitrogen Corporation, Grand Island, N.Y.). Lucifer Yellow (Sigma-Aldrich, St. Louis, Mo.) was used as the paracellular and monolayer integrity marker. […] The efflux ratio (ER) was calculated (Papp, B-A/Papp, A-B).
# MEK1 = MEK1 (Homo sapiens, UniProt Q02750); test: biochemical; conditions: read-out: % inhib
# Sequence of MEK1 (Q02750 whole entry): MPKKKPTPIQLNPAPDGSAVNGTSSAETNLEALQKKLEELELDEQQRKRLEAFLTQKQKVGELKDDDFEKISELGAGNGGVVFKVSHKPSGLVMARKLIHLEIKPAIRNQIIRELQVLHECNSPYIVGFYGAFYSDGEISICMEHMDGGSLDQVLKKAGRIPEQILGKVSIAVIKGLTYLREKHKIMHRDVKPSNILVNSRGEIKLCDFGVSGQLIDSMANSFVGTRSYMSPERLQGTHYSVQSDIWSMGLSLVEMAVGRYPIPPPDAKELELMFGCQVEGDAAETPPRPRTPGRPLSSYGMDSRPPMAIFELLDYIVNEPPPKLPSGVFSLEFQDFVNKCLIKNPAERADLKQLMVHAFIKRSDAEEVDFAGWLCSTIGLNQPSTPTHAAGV
# [3] = In vivo pharmacokinetics IV and PO; design: species or system male cynomolgus monkeys; conditions: Cyno
# Description: as §1
compound,measurement,setting,value
"CC1(C)OCCn2c1nc1c(N3CCOCC3)nc(-c3cnc(N)nc3)nc12 [GDC-0084, 5-(6,6-dimethyl-4-morpholino-8,9-dihydro-6H-[1,4]oxazino[3,4-e]purin-2-yl)pyrimidin-2-amine]",mean pixel intensity (MALDI imaging),[1]; GS2 tumors,0.34
same,mean pixel intensity (MALDI imaging),[1]; normal brain of GS2 tumor-bearing mice,0.55
same,inhibition at 1 µM,PI4Ka,7%
same,Suppression of p4EBP1 in GS2 tumors,p4EBP1; 2 hours after final administration,43%
same,p4EBP1 level in GS2 tumors,p4EBP1; 8 hours post-dose,back to baseline levels
same,pAKT in normal mouse brain tissue,"pAKT; 3 mg/kg or 10 mg/kg orally, 1 h post-dose",inhibited
same,pAKT in normal mouse brain tissue,"pAKT; 3 mg/kg orally, 4 hours post-dose",no longer resulted in inhibition of pAKT
same,inhibition at 1 µM,TBK1,4%
same,patients with metabolic partial response on FDG-PET,high-grade gliomas,five
same,"patients with metabolic partial response on FDG-PET, percent",high-grade gliomas,18.5%
same,inhibition at 1 µM,Frk,8%
same,inhibition at 1 µM,AKT1,0.7%
same,In vivo Cl,[2]; IV 1 mg/kg,28 mL/min/kg
same,Cmax,[2]; PO 5 mg/kg in MCT,1.1 μm
same,F %,[2]; PO 5 mg/kg in MCT,77%
same,"Papp A→B at 2 h, 5 μM",mouse Bcrp1,17.6 ± 2.1 ×10⁻⁶ cm/s
same,inhibition at 1 µM,MEK1,-0.1%
same,AUC,[3]; PO 2 mg/kg in MCT,0.11 μm·h
same,Cmax,[3]; PO 2 mg/kg in MCT,0.03 μm
same,clearance,"[3]; male, cynomolgus monkey, plasma, IV 1 mg/kg, read-out: In vivo Cl",46 mL/min/kg
same,Vd,"[3]; male, cynomolgus monkey, plasma, IV 1 mg/kg, read-out: Vss",2.9 L/kg
same,bioavailability,"[3]; male, cynomolgus monkey, plasma, PO 2 mg/kg in MCT",6%
